According to ChEMBL document CHEMBL1156466, “NHE1 inhibition by amiloride- and benzoylguanidine-type compounds. Inhibitor binding loci deduced from chimeras of NHE1 homologues with endogenous differences in inhibitor sensitivity” (J Biol Chem, 2007):
pIC50: −log10 of the molar value. The source made the active and inactive calls. The rule behind the calls is not given here.

Tests used:
[1] = (§1) Inhibition of Amphiuma tridactylum NHE1 mutant containing TM10-12 domain of Pleuronectes americanus expressed in chinese hamster AP1 cells assessed as intracellular pHi recovery by ammonium chloride prepulse protocol; assay type: cell-based
[2] = molecular target: T1, Sodium/hydrogen exchanger (Pseudopleuronectes americanus) (UniProt Q804I7); assay: Inhibition of osmotic cell shrinkage-induced NHE1 activity in Pleuronectes americanus RBC upto 100 uM
T1 sequence (whole entry): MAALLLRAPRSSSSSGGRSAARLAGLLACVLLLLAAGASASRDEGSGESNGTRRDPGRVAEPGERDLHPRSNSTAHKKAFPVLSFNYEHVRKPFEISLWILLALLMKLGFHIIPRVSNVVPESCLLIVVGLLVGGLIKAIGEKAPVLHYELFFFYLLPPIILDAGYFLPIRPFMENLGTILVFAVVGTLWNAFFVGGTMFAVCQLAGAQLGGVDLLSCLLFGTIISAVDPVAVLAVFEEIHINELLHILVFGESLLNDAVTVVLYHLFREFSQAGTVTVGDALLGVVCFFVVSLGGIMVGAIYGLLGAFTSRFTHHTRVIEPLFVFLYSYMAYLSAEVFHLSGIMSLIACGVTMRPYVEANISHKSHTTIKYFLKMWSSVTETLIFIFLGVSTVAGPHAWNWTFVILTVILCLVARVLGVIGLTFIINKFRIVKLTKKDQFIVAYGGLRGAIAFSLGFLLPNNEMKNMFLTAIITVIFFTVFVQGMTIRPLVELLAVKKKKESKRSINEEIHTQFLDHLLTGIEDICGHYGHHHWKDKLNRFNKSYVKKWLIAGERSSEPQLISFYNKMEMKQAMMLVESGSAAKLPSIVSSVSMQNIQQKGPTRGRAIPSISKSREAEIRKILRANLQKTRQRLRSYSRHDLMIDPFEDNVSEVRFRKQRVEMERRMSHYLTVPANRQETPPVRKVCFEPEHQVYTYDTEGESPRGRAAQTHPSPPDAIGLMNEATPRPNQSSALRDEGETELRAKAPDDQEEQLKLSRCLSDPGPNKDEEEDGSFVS

[3] = (§2) Inhibition of Pleuronectes americanus NHE1 mutant containing TM10-12 domain of Amphiuma tridactylum expressed in chinese hamster AP1 cells assessed as intracellular pHi recovery by ammonium chloride prepulse protocol; assay type: cell-based
[4] = molecular target: Sodium/hydrogen exchanger 1 (Homo sapiens, UniProt P19634); assay: Inhibition of human wild type NHE1 expressed in chinese hamster AP1 cells assessed as intracellular pHi recovery by ammonium chloride prepulse protocol; assay type: cell-based
[5] = (§3) Inhibition of Pleuronectes americanus NHE1 C-terminal mutant containing TM10 domain of Amphiuma tridactylum expressed in chinese hamster AP1 cells assessed as intracellular pHi recovery by ammonium chloride prepulse protocol; assay type: cell-based
[6] = molecular target: Sodium/hydrogen exchanger (Amphiuma tridactylum, UniProt Q9W6Q1); assay: (§4) Inhibition of Amphiuma tridactylum wild type NHE1 expressed in chinese hamster AP1 cells assessed as intracellular pHi recovery by ammonium chloride prepulse protocol; assay type: cell-based
[7] = molecular target: Sodium/hydrogen exchanger (Amphiuma tridactylum) (UniProt Q9W6Q1); assay: Inhibition of osmotic cell shrinkage-induced NHE1 activity in Amphiuma tridactylum RBC
[8] = (§5) Inhibition of Pleuronectes americanus NHE1 TM4 mutant containing VFFLF sequence of human expressed in chinese hamster AP1 cells assessed as intracellular pHi recovery by ammonium chloride prepulse protocol; assay type: cell-based
[9] = molecular target: T1, Sodium/hydrogen exchanger (Pseudopleuronectes americanus); assay: Inhibition of osmotic cell shrinkage-induced NHE1 activity in Pleuronectes americanus RBC at 1 mM
AP1 [10] = assay: Inhibition of Pleuronectes americanus NHE1 TM4 mutant containing TFFLF sequence of Amphiuma tridactylum expressed in chinese hamster AP1 cells assessed as intracellular pHi recovery by ammonium chloride prepulse protocol; assay type: cell-based
AP1 [11] = assay: Inhibition of Pleuronectes americanus NHE1 C-terminal mutant containing TM7 domain of Amphiuma tridactylum expressed in chinese hamster AP1 cells assessed as intracellular pHi recovery by ammonium chloride prepulse protocol; assay type: cell-based
AP1 [12] = assay: Inhibition of Pleuronectes americanus NHE1 C-terminal mutant with replacement of residues C-terminal to 489 position with corresponding residues of Amphiuma tridactylum expressed in chinese hamster AP1 cells assessed as intracellular pHi recovery by ammonium chloride prepulse protocol; assay type: cell-based
AP1 [13] = assay: as §1; assay type: cell-based
AP1 [14] = assay: as §2; assay type: cell-based
AP1 [15] = assay: as §3; assay type: cell-based
[16] = molecular target: Sodium/hydrogen exchanger (Amphiuma tridactylum) (UniProt Q9W6Q1); assay: as §4; assay type: cell-based
[17] = molecular target: T1, Sodium/hydrogen exchanger (Pseudopleuronectes americanus); assay: Inhibition of Pleuronectes americanus wild type NHE1 expressed in chinese hamster AP1 cells assessed as intracellular pHi recovery by ammonium chloride prepulse protocol; assay type: cell-based
AP1 [18] = assay: as §5; assay type: cell-based
[19] = molecular target: Sodium/hydrogen exchanger (Amphiuma tridactylum) (UniProt Q9W6Q1); assay: Inhibition of osmotic cell shrinkage-induced NHE1 activity in Amphiuma tridactylum RBC at 100 uM
[20] = molecular target: T1, Sodium/hydrogen exchanger (Pseudopleuronectes americanus); assay: Inhibition of osmotic cell shrinkage-induced NHE1 activity in Pleuronectes americanus RBC at 20 uM

Sodium/hydrogen exchanger (Amphiuma tridactylum), sequence (Q9W6Q1 as listed by the source): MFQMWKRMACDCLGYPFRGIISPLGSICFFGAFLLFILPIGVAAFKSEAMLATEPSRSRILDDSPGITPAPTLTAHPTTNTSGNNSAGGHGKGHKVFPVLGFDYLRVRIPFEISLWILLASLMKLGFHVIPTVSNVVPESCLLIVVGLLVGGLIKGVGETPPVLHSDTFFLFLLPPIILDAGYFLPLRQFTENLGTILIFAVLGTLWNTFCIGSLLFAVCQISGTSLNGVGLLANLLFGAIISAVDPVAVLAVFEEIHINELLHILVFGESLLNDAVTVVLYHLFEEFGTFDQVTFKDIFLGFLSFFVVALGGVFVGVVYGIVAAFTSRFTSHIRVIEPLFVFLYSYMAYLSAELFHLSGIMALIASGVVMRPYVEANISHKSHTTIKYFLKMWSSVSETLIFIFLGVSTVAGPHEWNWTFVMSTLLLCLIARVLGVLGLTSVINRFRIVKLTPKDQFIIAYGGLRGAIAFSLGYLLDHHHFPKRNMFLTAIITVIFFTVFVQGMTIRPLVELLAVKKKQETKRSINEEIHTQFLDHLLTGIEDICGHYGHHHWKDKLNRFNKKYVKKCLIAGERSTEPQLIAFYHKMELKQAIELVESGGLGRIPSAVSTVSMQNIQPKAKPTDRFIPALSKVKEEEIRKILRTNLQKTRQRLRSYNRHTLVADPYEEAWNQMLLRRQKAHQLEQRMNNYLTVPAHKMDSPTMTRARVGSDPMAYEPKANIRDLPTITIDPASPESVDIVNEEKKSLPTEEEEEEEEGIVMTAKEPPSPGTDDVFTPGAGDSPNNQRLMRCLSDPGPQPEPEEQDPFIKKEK
Sodium/hydrogen exchanger 1, sequence (P19634 whole entry, the tested form may be a part): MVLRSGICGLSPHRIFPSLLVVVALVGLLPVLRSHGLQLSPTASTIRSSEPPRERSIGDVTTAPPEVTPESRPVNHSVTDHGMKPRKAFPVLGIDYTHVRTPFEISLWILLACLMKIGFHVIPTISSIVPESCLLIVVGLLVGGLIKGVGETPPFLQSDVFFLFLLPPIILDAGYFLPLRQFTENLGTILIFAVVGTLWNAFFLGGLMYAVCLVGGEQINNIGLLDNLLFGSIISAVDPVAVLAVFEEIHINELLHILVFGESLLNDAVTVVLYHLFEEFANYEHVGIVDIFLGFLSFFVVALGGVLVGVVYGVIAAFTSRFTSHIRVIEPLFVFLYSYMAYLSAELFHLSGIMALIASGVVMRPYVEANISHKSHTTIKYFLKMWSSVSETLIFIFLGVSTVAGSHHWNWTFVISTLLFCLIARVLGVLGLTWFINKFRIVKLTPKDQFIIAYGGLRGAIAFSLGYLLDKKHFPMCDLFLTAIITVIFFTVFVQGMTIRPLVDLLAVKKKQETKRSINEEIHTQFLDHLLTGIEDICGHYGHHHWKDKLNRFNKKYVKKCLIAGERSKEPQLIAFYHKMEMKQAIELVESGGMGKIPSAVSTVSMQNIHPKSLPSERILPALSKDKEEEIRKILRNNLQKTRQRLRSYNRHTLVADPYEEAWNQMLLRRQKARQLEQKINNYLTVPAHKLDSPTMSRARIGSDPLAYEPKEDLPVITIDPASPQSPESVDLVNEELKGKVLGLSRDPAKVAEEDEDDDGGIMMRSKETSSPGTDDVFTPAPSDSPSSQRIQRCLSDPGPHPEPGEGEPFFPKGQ
Sodium/hydrogen exchanger, sequence (Q9W6Q1 whole entry): as the sequence (Q9W6Q1 as listed by the source) above

| Structure (SMILES) | pIC50 [1] | pIC50 [3] | pIC50 [5] | pIC50 [6] | pIC50 [8] | Activity (AP1 [10]) | Activity (AP1 [13]) | Activity (AP1 [14]) | Activity [4] | Activity (AP1 [15]) | Activity [16] | Activity [17] | Activity (AP1 [18]) | also measured |
| --- | --- | --- | --- | --- | --- | --- | --- | --- | --- | --- | --- | --- | --- | --- |
| CCN(c1nc(N)c(C(=O)NC(=N)N)nc1Cl)C(C)C [5-(N-ETHYL-N-ISOPROPYL)AMILORIDE] | 5.24 | 4.96 | 4.43 | 5.06 | 6.04 |  |  |  |  |  |  |  |  | Activity [2]: inactive; pIC50 [4]: 6.10; Activity [7]: Active |
| N=C(N)NC(=O)c1nc(Cl)c(N)nc1N [AMILORIDE] | 4.42 | 3.86 | 3.31 | 4.01 | 3.93 | Active |  |  |  |  |  |  |  | Activity [9]: inactive; Activity (AP1 [11]): Active; Activity (AP1 [12]): inactive |
| CC(C)c1ccc(C(=O)N=C(N)N)cc1S(C)(=O)=O |  |  |  |  |  | Active | Active | inactive | Active | inactive | inactive | inactive | Active |  |
| CS(=O)(=O)c1cc(C(=O)N=C(N)N)ccc1N1CCCCC1 |  |  |  |  |  | Active | Active | inactive | Active | inactive | inactive | inactive | Active | Activity [19]: inactive; Activity [20]: inactive |
